The text below walks through data of patent publication US4810630A, “Use of polyoxyethylene ethers to improve the performance of immunoassays employing peroxidase conjugates” (priority 1987, dated 1989).

In this experiment the test system is N. gonorrhea. In words: Microtiter plate enzyme immunoassay: optimization of coating antibody concentration with detergent in assay buffer. Further details: species or system Neisseria gonorrhea. The protocol: Samples were treated 1.0N NaOH and neutralized with assay buffer as described in Example 1, above. For this assay, 0.100 mL aliquots of the treated, neutralized sample were transferred to the wells of a 96-well microtiter plate which had been previously incubated with an optimized concentration of anti-N. gonorrhea antibody diluted in phosphate buffered saline for 90-120 minutes, drained, then blocked with a solution containing 1.0% bovine serum albumin and 20% sucrose in phosphate buffered saline for 2 hours and dried in vacuo. The aliquots were permitted to incubate in the microtiter plate wells for 90 minutes at room temperature,then drained and washed with phosphate buffered saline containing 0.05% Tween® 20. Horseradish peroxidase conjugated anti-N. gonorrhea, 100 μL of an optimized concentration, was then added to each well and the plate again incubated for 1 hour at room temperature. The plate was then drained and washed as above. A 100 μL portion of the substrate/chromogen solution described in Example 1, above, was then added to each well and incubated for 10 minutes at room temperature. The absorbance of each well was then determined at 630 nm, and corrected for the absorbance at 490 nm.
Antibody specific for Neisseria gonorrhea was used to coat the wells of microtiter plates at varying concentrations in phosphate buffered saline, as described above. A comparison of the optimal antibody concentration in assays using Tween® 20 or Triton® X-100 was made by testing a single concentration of N. gonorrhea in wells previously coated, blocked, and dried as described above. The optimum concentration of antibody is identified as that which yields the maximum signal in the assay with a minimal background response. Table 4 lists the results of such experiments using Tween® 20 and Triton® X-100 as detergents in the assay buffer.

Turning to “polyoxyethylene-octylphenoxy [Triton ® X-100]”, the “% Maximum Signal” value is, setting by setting: (coating antibody 0.20 μg/well) 100%; (coating antibody 0.30 μg/well) 98%; (coating antibody 0.35 μg/well) 70%; (coating antibody 0.40 μg/well) 69%; (coating antibody 0.45 μg/well) 66%; (coating antibody 0.5 μg/well) 58%. Further, the “% Maximum Signal” value (coating antibody 0.60 μg/well) is listed as 57%.

For the substance “polyoxyethylene-sorbitan monolaurate [Tween ® 20]”, the “% Maximum Signal” value is, setting by setting: (coating antibody 0.05 μg/well) 16%; (coating antibody 0.1 μg/well) 35%; (coating antibody 0.5 μg/well) 100%; (coating antibody 0.8 μg/well) 98%; (coating antibody 1.0 μg/well) 90%; (coating antibody 1.5 μg/well) 77%. Also, where the note is “coating antibody 2.0 μg/well”, the “% Maximum Signal” value is listed as 66%.
